Tests used:
[1] = tested on: H. contortus moxidectin-resistant strain (MOF14); assay: Effect of verapamil on efficacy of moxidectin and ivermectin against moxidectin-resistant H. contortus in jirds (Example 8); assay type: in vivo, Haemonchus contortus; design: key to SIGNIFICANCE AT P <0.05: A: Different letters indicate the mean worm counts are statistically different; B: Different letters indicate the mean worm counts are statistically different; C: Different letters indicate the mean worm counts are statistically different; settings: for SIGNIFICANCE AT P <0.05: MOF14 in jirds, mean worm counts, IVM (±VRP) not compared with MOX (±VRP)
[2] = tested on: H. contortus ivermectin resistant strain (ACR); settings: ACR after twelve generations of ivermectin selection
[3] = tested on: H. contortus susceptible strain (PF14); assay: Dose titration to establish LD50 against susceptible H. contortus in the jird; assay type: in vivo, Haemonchus contortus; settings: jirds, oral, treated day 10 after inoculation, probit analysis
Protocol: (§1) Jirds, which are fed on a standard commercial ration to which 0.02% hydrocortisone has been added 5 days prior to infection, are inoculated with 1000 exsheathed L3 H. contortus. On day 10 after inoculation, the jirds are treated with either water or various doses of moxidectin or ivermectin orally. Each treatment group contains 6 jirds. Probit analyses are used to estimate LD50 levels for each anthelmintic against each strain.

[4] = tested on: H. contortus ivermectin resistant strain (MFR); settings: MFR selected over seventeen generations of ivermectin selection; cited from earlier work
[5] = tested on: mice with deletion of mdr1a; settings: mice with deletion of mdr1a versus normal mice; cited from earlier work
[6] = tested on: H. contortus moxidectin-resistant strain (MOF14); assay: Dose titration to establish LD50 against moxidectin resistant H. contortus in the jird; assay type: in vivo, Haemonchus contortus; settings: jirds, oral, treated day 10 after inoculation, probit analysis
Protocol: as §1

[7] = tested on: H. contortus moxidectin-resistant strain (MOF14); assay: Efficacy of verapamil with or without ivermectin against moxidectin resistant H. contortus in jirds (Example 7); assay type: in vivo, Haemonchus contortus
Protocol: as §1
(§2) Verapamil is given concomitantly with ivermectin by the oral route.

[8] = tested on: H. contortus susceptible strain (PF14); assay: Efficacy of verapamil with or without ivermectin against susceptible H. contortus in jirds (Example 7); assay type: in vivo, Haemonchus contortus
Protocol: as §1, §2

[9] = verapamil 20 mg/kg, resistant worms, jirds (Example 8)

Molecule	SIGNIFICANCE AT P <0.05 [1]	resistance at the ED95 compared with ACS [2] [×]	estimated LD50 [3] [mg/kg]	resistance at the ED95 compared with MFS [4] [×]	sensitivity to ivermectin relative to normal mice [5]	estimated LD50 [6] [mg/kg]	effect of verapamil on the efficacy of moxidectin [1, 9]	increase in efficacy when verapamil is coadministered with ivermectin [1, 9]	significance of worm counts ([7]; MOX-resistant strain MOF14 in jirds, VRP 20 mg/kg, IVM 0.046 mg/kg, oral)	effect of verapamil alone on worm counts ([7]; moxidectin resistant strain, any of the dose rates used (20 to 80 mg/kg), jirds)	effect of verapamil on the efficacy of ivermectin ([7]; verapamil 20 mg/kg, moxidectin resistant worms, jirds (Example 7))	significance of worm counts ([8]; susceptible strain PF14 in jirds, VRP 20 mg/kg, IVM 0.024 mg/kg, oral)	effect of verapamil alone on worm counts ([8]; susceptible strain, any of the dose rates used (20 to 80 mg/kg), jirds)
22,23-dihydroavermectin B1 [ivermectin]	B	6.3	0.024	10	50-100 times	0.046							
COc1ccc(CCN(C)CCCC(C#N)(c2ccc(OC)c(OC)c2)C(C)C)cc1OC (centres unmarked) [verapamil]	A						significantly increases the efficacy of moxidectin	not significant	n.s.	no significant effect on worm counts	significantly enhances the efficacy of ivermectin	n.s.	no significant effect on worm counts
CO/N=C1\C[C@]2(C[C@@H]3C[C@@H](C/C=C(\C)C[C@@H](C)/C=C/C=C4\CO[C@@H]5[C@H](O)C(C)=C[C@@H](C(=O)O3)[C@]45O)O2)O[C@H](/C(C)=C/C(C)C)[C@H]1C [moxidectin, 23-(O-methyloxime)-LL-F28249α]	B		0.010			0.017							

From patent publication US6593087B2, “Methods for detecting and reversing resistance to macrocyclic lactone compounds” (priority 1997, dated 2003)
